The results in this text go back to ChEMBL document CHEMBL5370538, “Discovery of novel 6-p-tolyl-3-(3,4,5-trimethoxybenzyl)-7H-[1,2,4]triazolo[3,4-b][1,3,4]thiadiazine derivative as a potent tubulin inhibitor with promising in vivo antitumor activity” (Eur J Med Chem, 2023).

Data set [1] deals with A549. Description: Antitumor activity against human A549 cells xenografted in Balb/c mouse assessed as inhibition of tumor weight at 60 mg/kg,ip administrated for 7 days. To be noted: time 7.0 day. The format is functional, organism-based.
The nature of data set [2]: Half life in Sprague-Dawley rat at 2 mg/kg,iv measured upto 24 hrs by LC-MS/MS analysis. The format is ADME, organism-based. To be noted: in vivo.
Data set [3] relates to HeLa. The data set is described as follows: Induction of apoptosis in human HeLa cells assessed as necrotic cells at 0.03 uM incubated for 24 hrs Annexin V-FITC/PI staining based flow cytometry analysis (Rvb= 0.12 %). The format is functional. In general terms: Flow cytometry measures light scatter and fluorescence of single cells or particles in a stream.
Data set [4] relates to HeLa. The data set is described as follows: Induction of cell cycle arrest in human HeLa cells assessed as accumulation of cells at G0/G1 phase at 0.06 uM incubated for 24 hrs by propidium iodide staining based flow cytometry (reference value: 62.4 %). It is filed as functional.
Data set [5] deals with HeLa. The data set is described as follows: Induction of apoptosis in human HeLa cells assessed as late apoptotic cells at 0.03 uM incubated for 24 hrs Annexin V-FITC/PI staining based flow cytometry analysis (Rvb= 2.13 %). The format is functional.
The nature of data set [6]: Tmax in Sprague-Dawley rat at 2 mg/kg,iv measured upto 24 hrs by LC-MS/MS analysis. It is filed as ADME, organism-based. To be noted: in vivo.
Another data set addresses Tubulin. The data set is described as follows: Inhibition of tubulin polymerization (unknown origin) measured for 20 mins in presence of GTP by spectrophotometry analysis. It is filed as protein-complex assay, Homo sapiens.
The nature of data set [7]: AUC (0-infinity) in Sprague-Dawley rat at 2 mg/kg,iv measured upto 24 hrs by LC-MS/MS analysis. It is filed as ADME, organism-based. Also on record: dose 2 mg/kg, time < 24 hrs, route iv. As to conditions: in vivo.
Data set [8] concerns HeLa. Description: Induction of apoptosis in human HeLa cells assessed as early apoptotic cells at 0.06 uM incubated for 24 hrs Annexin V-FITC/PI staining based flow cytometry analysis (Rvb= 1.85 %). The format is functional.
The nature of data set [9]: Clearance in Sprague-Dawley rat at 10 mg/kg,po measured upto 24 hrs by LC-MS/MS analysis. As to conditions: in vivo. It is filed as ADME, organism-based.
Data set [10] deals with A549. The data set is described as follows: Antiproliferative activity against human A549 cells assessed as cell growth inhibition incubated for 48 hrs by MTT assay. The format is functional, cell-based. To be noted: A549, 48 h. Background: Tetrazolium dyes change colour on reduction, which living cells bring about.
In data set [11] the test system is HeLa. Description: Induction of apoptosis in human HeLa cells assessed as viable cells at 0.06 uM incubated for 24 hrs Annexin V-FITC/PI staining based flow cytometry analysis (Rvb= 95.9 %). The format is functional. As to conditions: read-out: Activity.
Data set [12] concerns HeLa. Description: Induction of cell cycle arrest in human HeLa cells assessed as accumulation of cells at G0/G1 phase at 0.03 uM incubated for 24 hrs by propidium iodide staining based flow cytometry (reference value: 62.4 %). The format is functional.
A short description of data set [13]: MRT (0-infinity) in Sprague-Dawley rat at 10 mg/kg,po measured upto 24 hrs by LC-MS/MS analysis. It is filed as ADME, organism-based. As to conditions: in vivo.
In data set [14] the test system is HeLa. Description: Induction of apoptosis in human HeLa cells assessed as viable cells at 0.03 uM incubated for 24 hrs Annexin V-FITC/PI staining based flow cytometry analysis (Rvb= 95.9 %). The format is functional. As to conditions: read-out: Activity.

SMILES strings stand for the structures. The source made the active and inactive calls. No cut-off for these calls is given here.

With `COc1cc(Cc2nnc3n2N=C(c2ccc(C)cc2)CS3)cc(OC)c1OC`, the outcome in the data set on A549 [1] was Active. Further, the half-life in [2] was 5.3 h. Moreover, the Activity was 0.57% in the data set on HeLa [3]; 1.94% with HeLa [4]; 4.9% with HeLa [5]; 17.4% with HeLa [8]; 52.76% in the data set on HeLa [12]. The Tmax in [6] worked out at 6 min. The IC50 on Tubulin was determined as 11.2 µM; in the data set with A549 [10], 0.96 µM. In [7], this compound yielded an AUC(0-inf) of 310 ng·h/mL. In data set [9], this compound gave a CL/F of 2180 mL/min/kg. Also, the viability at 0.06 µM in the data set with HeLa [11] was found to be 74.7%. Moreover, in [13], the MRT inf came out at 7.9 h. Further, the viability at 0.03 µM with HeLa [14] worked out at 76%.

As usually defined, the half-life is how long it takes for the measured level to halve. Low readings indicate fast loss, high ones slow loss. As usually defined, the Tmax is the time at which the peak concentration occurs. As a reminder, the IC50 is the concentration at which inhibition is half-maximal. The term AUC(0-inf) denotes the area under the concentration-time curve extrapolated to infinity. In general, CL/F refers to the apparent clearance, not corrected for the fraction that reaches the circulation. Usually MRT inf stands for the average time that molecules of a dose stay in the body.
